# The source made the active and inactive calls. The rule behind the calls is not given here.
# Assays:
# [1] = target: T1, MAP kinase-interacting serine/threonine-protein kinase 1 (Homo sapiens, UniProt Q9BUB5); test: Inhibition of GST-tagged recombinant human full length MNK1 expressed in insect cells at 10 uM relative to control
# Target sequence in this assay (Q9BUB5 whole entry, looked up): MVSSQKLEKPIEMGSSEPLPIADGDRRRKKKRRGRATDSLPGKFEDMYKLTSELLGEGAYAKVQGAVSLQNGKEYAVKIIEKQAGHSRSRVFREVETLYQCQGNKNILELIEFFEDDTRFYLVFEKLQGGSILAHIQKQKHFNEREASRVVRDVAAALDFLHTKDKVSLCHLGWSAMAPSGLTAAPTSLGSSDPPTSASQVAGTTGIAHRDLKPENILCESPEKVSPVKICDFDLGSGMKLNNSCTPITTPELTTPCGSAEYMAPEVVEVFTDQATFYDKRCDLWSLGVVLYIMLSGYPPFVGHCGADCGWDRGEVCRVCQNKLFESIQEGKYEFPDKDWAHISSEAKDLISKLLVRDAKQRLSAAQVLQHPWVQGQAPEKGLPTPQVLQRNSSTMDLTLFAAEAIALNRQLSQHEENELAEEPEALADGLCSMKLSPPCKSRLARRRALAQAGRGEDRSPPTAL
# MV4-11 [2] = test: Induction of apoptosis in human MV4-11 cells assessed as increase in cleaved caspace-3 level after 72 hrs by Western blot analysis; assay type: functional, cell-based; conditions: dose microM 1-30, time 72.0 hrs
# MV4-11 [3] = test: Induction of cell cycle arrest in human MV4-11 cells assessed as increase in accumulation at sub-G1 phase at 3 to 30 uM after 72 hrs by propidium iodide staining based flow cytometric analysis; assay type: functional; conditions: dose microM 3-30, time 72.0 hrs
# [4] = target: T2, MAP kinase-interacting serine/threonine-protein kinase 1/2 (Homo sapiens) (UniProt Q9HBH9+Q9BUB5); test: Inhibition of MNK1/MNK2 in human MOLM-13 cells assessed as reduction in eIF4E phosphorylation reduction in eIF4E phosphorylation at 30 uM after 24 to 48 hrs by Western blot analysis; assay type: cell-based; conditions: time hrs 24-48
# [5] = target: T3, MAP kinase-interacting serine/threonine-protein kinase 2 (Homo sapiens, UniProt Q9HBH9); test: Inhibition of N-terminal GST-tagged recombinant human full length MNK2 expressed in baculovirus expression system incubated for 1 hr by Kinase Tracer 236 based LanthaScreen Eu kinase binding assay relative to control
# Target sequence in this assay (Q9HBH9 whole entry): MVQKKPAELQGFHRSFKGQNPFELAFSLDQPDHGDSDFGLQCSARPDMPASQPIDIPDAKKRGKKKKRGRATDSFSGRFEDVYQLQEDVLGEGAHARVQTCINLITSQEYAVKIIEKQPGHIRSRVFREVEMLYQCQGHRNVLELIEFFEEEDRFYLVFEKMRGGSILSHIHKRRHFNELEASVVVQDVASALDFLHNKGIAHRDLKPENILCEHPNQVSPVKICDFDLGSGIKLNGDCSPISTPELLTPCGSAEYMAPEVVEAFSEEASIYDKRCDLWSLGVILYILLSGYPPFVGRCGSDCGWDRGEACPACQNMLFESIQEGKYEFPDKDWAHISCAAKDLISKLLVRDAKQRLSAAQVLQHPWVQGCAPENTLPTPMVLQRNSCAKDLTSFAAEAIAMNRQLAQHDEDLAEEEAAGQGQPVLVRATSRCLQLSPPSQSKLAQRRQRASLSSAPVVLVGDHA
# [6] = target: T2, MAP kinase-interacting serine/threonine-protein kinase 1/2 (Homo sapiens); test: Inhibition of MNK1/MNK2 in human MV4-11 cells assessed as reduction in eIF4E phosphorylation reduction in eIF4E phosphorylation after 24 to 48 hrs by Western blot analysis; assay type: cell-based; conditions: dose microM 1-30, time hrs 24-48
# MV4-11 [7] = test: Induction of apoptosis in human MV4-11 cells assessed as increase in cleaved PARP level after 72 hrs by Western blot analysis; assay type: functional, cell-based; conditions: dose microM 1-30, time 72.0 hrs
# MOLM-13 [8] = test: Induction of cell death in human MOLM-13 cells assessed as increase in accumulation at sub-G1 phase after 72 hrs by propidium iodide staining based flow cytometric analysis; assay type: functional; conditions: dose microM 1-30, time 72.0 hrs
# [9] = target: T1, MAP kinase-interacting serine/threonine-protein kinase 1; test: Inhibition of GST-tagged recombinant human full length MNK1 expressed in insect cells
# Target sequence in this assay (Q9BUB5 whole entry): as the sequence (Q9BUB5 whole entry, looked up) above
# [10] = target: T3, MAP kinase-interacting serine/threonine-protein kinase 2; test: Inhibition of N-terminal GST-tagged recombinant human full length MNK2 expressed in baculovirus expression system at 10 uM incubated for 1 hr by Kinase Tracer 236 based LanthaScreen Eu kinase binding assay relative to control
# Target sequence in this assay (Q9HBH9 whole entry, looked up): as the sequence (Q9HBH9 whole entry) above
# MV4-11 [11] = test: Induction of cell death in human MV4-11 cells assessed as increase in accumulation at sub-G1 phase after 72 hrs by propidium iodide staining based flow cytometric analysis; assay type: functional; conditions: dose microM 1-30, time 72.0 hrs
# MOLM-13 [12] = test: Cytotoxicity against human MOLM-13 cells assessed as reduction in cell viability after 72 hrs by MTT assay; assay type: functional, cell-based; conditions: MOLM-13, 72 h
# MV4-11 [13] = test: Cytotoxicity against human MV4-11 cells assessed as reduction in cell viability after 72 hrs by MTT assay; assay type: functional, cell-based; conditions: MV4-11, 72 h
# [14] = target: T2, MAP kinase-interacting serine/threonine-protein kinase 1/2 (Homo sapiens); test: Inhibition of MNK1/MNK2 in human MOLM-13 cells assessed as reduction in eIF4E phosphorylation reduction in eIF4E phosphorylation after 24 to 48 hrs by Western blot analysis; assay type: cell-based; conditions: dose microM 1-30, time hrs 24-48
# MOLM-13 [15] = test: Induction of cell cycle arrest in human MOLM-13 cells assessed as increase in accumulation at sub-G1 phase at 3 to 30 uM after 72 hrs by propidium iodide staining based flow cytometric analysis; assay type: functional; conditions: dose microM 3-30, time 72.0 hrs
# MOLM-13 [16] = test: Induction of apoptosis in human MOLM-13 cells assessed as increase in cleaved PARP level after 72 hrs by Western blot analysis; assay type: functional, cell-based; conditions: dose microM 1-30, time 72.0 hrs
# MOLM-13 [17] = test: Induction of apoptosis in human MOLM-13 cells assessed as increase in cleaved caspace-3 level after 72 hrs by Western blot analysis; assay type: functional, cell-based; conditions: dose microM 1-30, time 72.0 hrs
# [18] = target: T2, MAP kinase-interacting serine/threonine-protein kinase 1/2 (Homo sapiens); test: Inhibition of MNK1/MNK2 in human MV4-11 cells assessed as reduction in eIF4E phosphorylation reduction in eIF4E phosphorylation at 30 uM after 24 to 48 hrs by Western blot analysis; assay type: cell-based; conditions: time hrs 24-48
# MV4-11 [19] = test: Induction of cell cycle arrest in human MV4-11 cells assessed as increase in accumulation at sub-G1 phase at 1 to 30 uM after 72 hrs by propidium iodide staining based flow cytometric analysis; assay type: functional; conditions: dose microM 1-30, time 72.0 hrs
# [20] = target: T2, MAP kinase-interacting serine/threonine-protein kinase 1/2 (Homo sapiens); test: Inhibition of MNK1/MNK2 in human MV4-11 cells assessed as reduction in eIF4E phosphorylation reduction in eIF4E phosphorylation at 10 uM after 24 to 48 hrs by Western blot analysis; assay type: cell-based; conditions: time hrs 24-48
# MV4-11 [21] = test: Induction of cell cycle arrest in human MV4-11 cells assessed as increase in accumulation at sub-G1 phase at 30 uM after 72 hrs by propidium iodide staining based flow cytometric analysis relative to control; assay type: functional
# MOLM-13 [22] = test: Induction of cell cycle arrest in human MOLM-13 cells assessed as increase in accumulation at sub-G1 phase at 1 to 30 uM after 72 hrs by propidium iodide staining based flow cytometric analysis; assay type: functional; conditions: dose microM 1-30, time 72.0 hrs
# MOLM-13 [23] = test: Induction of cell cycle arrest in human MOLM-13 cells assessed as increase in accumulation at sub-G1 phase at 30 uM after 72 hrs by propidium iodide staining based flow cytometric analysis relative to control; assay type: functional
# [24] = target: T2, MAP kinase-interacting serine/threonine-protein kinase 1/2 (Homo sapiens); test: Inhibition of MNK1/MNK2 in human MOLM-13 cells assessed as reduction in eIF4E phosphorylation reduction in eIF4E phosphorylation at 10 uM after 24 to 48 hrs by Western blot analysis; assay type: cell-based; conditions: time hrs 24-48
compound,measurement,setting,value
COc1c(O)cc2oc(-c3ccc(O)cc3)cc(=O)c2c1O [HISPIDULIN],inhibition,[1],> 70%
same,Activity,MV4-11 [2],Dose-dependent effect
same,Activity,MV4-11 [3],Active
same,inhibition,[4],100%
same,IC50,[5],0.252 µM
same,inhibition,[6],Dose-dependent effect
same,Activity,MV4-11 [7],Dose-dependent effect
same,Activity,MOLM-13 [8],Active
same,IC50,[9],1.2 µM
same,inhibition,[10],93%
same,Activity,MV4-11 [11],Active
same,IC50,MOLM-13 [12],6.4 µM
same,IC50,MV4-11 [13],8.2 µM
same,inhibition,[14],Dose-dependent effect
same,Activity,MOLM-13 [15],Active
same,Activity,MOLM-13 [16],Dose-dependent effect
same,Activity,MOLM-13 [17],Dose-dependent effect
same,inhibition,[18],100%
COc1cc(O)c(C(=O)/C=C/c2ccccc2)c(OC)c1,inhibition,[10],> 50%
COc1cc2c(c(OC)c1CC=C(C)C)C(=O)CC(c1ccc(OC)c(OC)c1C/C=C(\C)CCC=C(C)C)O2 (centres undefined),IC50,[5],8.26 µM
same,inhibition,[10],> 70%
O=c1cc(-c2ccc(O)cc2)oc2cc(O)cc(O)c12 [APIGENIN],IC50,[5],0.308 µM
same,inhibition,[10],> 70%
O=C(/C=C/c1cccc(O)c1)c1ccccc1O,inhibition,[10],> 50%
COc1cc(O)c(C(=O)/C=C/c2ccc(C(=O)O)cc2)c(OC)c1,IC50,[5],3.7 µM
same,inhibition,[10],> 70%
COc1ccc(-c2oc3cc(OC)c(OC)c(O)c3c(=O)c2O)cc1O,IC50,[5],1.7 µM
same,inhibition,[10],> 70%
COc1ccc(-c2cc(=O)c3c(O)cc(O)cc3o2)cc1,inhibition,[10],> 50%
COc1ccc(-c2cc(=O)c3ccc(O)cc3o2)cc1OC,inhibition,[10],> 50%
COc1ccc(C(=O)/C=C/c2ccc(O)c(Br)c2)cc1,IC50,[5],4.67 µM
same,inhibition,[10],> 70%
O=c1cc(-c2ccccc2)oc2cc(O)ccc12,inhibition,[10],> 50%
O=c1cc(-c2ccc(O)c(O)c2)oc2cc(O)cc(O)c12 [LUTEOLIN],Activity,MV4-11 [19],Active
same,inhibition,[20],100%
same,inhibition,[1],> 70%
same,Activity,MV4-11 [2],Dose-dependent effect
same,IC50,[5],0.579 µM
same,Activity,MV4-11 [21],>80%
same,inhibition,[6],Dose-dependent effect
same,Activity,MV4-11 [7],Dose-dependent effect
same,Activity,MOLM-13 [8],Active
same,IC50,[9],0.179 µM
same,inhibition,[10],> 70%
same,Activity,MV4-11 [11],Active
same,IC50,MOLM-13 [12],4.5 µM
same,IC50,MV4-11 [13],3.1 µM
same,Activity,MOLM-13 [22],Active
same,inhibition,[14],Dose-dependent effect
same,Activity,MOLM-13 [16],Dose-dependent effect
same,Activity,MOLM-13 [23],>80%
same,inhibition,[24],100%
same,Activity,MOLM-13 [17],Dose-dependent effect
COc1cc(O)c2c(=O)cc(-c3ccc(O)cc3)oc2c1 [GENKWANIN],IC50,[5],0.979 µM
same,inhibition,[10],> 70%
same,IC50,MOLM-13 [12],> 10 µM
same,IC50,MV4-11 [13],> 10 µM
O=c1c(O)c(-c2ccncc2)oc2ccc(Cl)cc12,IC50,[5],6.49 µM
same,inhibition,[10],> 70%
